From patent US20240285769A1, “INJECTABLE, BIODEGRADABLE AND REMOVABLE POLYMER BASED DRUG SUSPENSION FOR ULTRA-LONG-ACTING DRUG DELIVERY” (The University of North Carolina at Chapel Hill, priority 2021, published 2024)
Where a name gives a salt, the structure may show the parent alone.

What was measured:
[1] = Preparation and optimization of drug suspension formulations; format: physicochemical; conditions: for depot formation when injected into aqueous release medium: PBS, pH 7.4, 37° C.
Protocol: The polymer based drug suspensions were prepared by: (1) Placebo formulation: 50:50 Poly(DL-lactide-co-glycolide) (PLGA), MW 10 or 27 kDa, or Poly(lactic acid) (PLA) MW 10 kDa, was mixed with N-methyl-2-pyrrolidone (NMP) or a combination of NMP and DMSO (e.g. 1:1 v/v) at various weight ratios of PLGA/solvent (w/w) and allowed to dissolve by continuous mixing at room temperature (Placebo). […] (2) Drug loading: […] (3) Depot formation: A sample from the resulting drug-loaded suspension formulation (30 μL, 30±3 mg) was injected into 200 mL of 0.01 M PBS pH 7.4 using a pipette and incubated at 37° C. for 24 h to produce a spherical implant, as an example. […] Of importance, but without being limited to any particular theory or mechanism of action, is the ratio of the polymer:solvent:drug that achieves high drug loading in a stable polymeric suspension formulation and which is correlated to the drug's saturation solubility in the solvent system.

[2] = In vitro release of chemotherapeutic ISFIs; format: physicochemical
Protocol: ISFI formulations were prepared with two different chemotherapeutic drugs, paclitaxel (PTX) and gemcitabine (Gem) and investigated for in vitro release kinetics (PTX and Gem ISFIs; FIGS. 21A-21C and 22A-22B) and for in vivo safety and pharmacokinetics (PTX ISFI; FIG. 23).

[3] = In vivo pharmacokinetics of MPT ISFI formulations; design: species or system mice
Protocol: FIGS. 18A to 18E. Drug concentrations in plasma of MPT ISFI formulations. Plasma concentrations of (FIG. 18A) DTG (278 mg/kg, 50 μL injection) when co-formulated with MPA or ENG (n=6-12/timepoint per group), (FIG. 18B) CAB (1215 mg/kg, 50 μL injection) when co-formulated with MPA or ENG (n=6-12/timepoint per group), (FIG. 18C) MPA (70-76 mg/kg, 50 μL injection) when co-formulated with DTG or CAB (n=6-12/timepoint per group), and (FIG. 18D) ENG (70-151 mg/kg, 50 μL injection) when co-formulated with DTG or CAB (n=6-12/timepoint per group). […] (FIG. 18E) R^2 values for mathematical models of zero-order, first-order, and diffusion-controlled (Higuchi) release.
Pharmacokinetic (PK) studies were carried out in mice over 90 days to assess in vivo drug release of MPT ISFI formulations. DTG, CAB, ENG, and MPA plasma concentrations were quantified using a high-performance liquid chromatography-tandem mass spectrometry LC/MS-MS method and were plotted over 90 days (FIG. 18).
Moreover, the release kinetics of DTG, CAB, MPA, and ENG were assessed against three mathematical models (zero-order, first-order, and diffusion-controlled (Higuchi) (Gouda, Baishya et al. 2017)).

[4] = Drug saturation solubility studies; format: physicochemical; conditions: for solubility: 21 °C, thermodynamic from solid
Protocol: The saturation concentration of each drug in various solvents and/or solvent combinations was determined. Drugs were then formulated in ISFI formulations containing 1:1, 1:1.5, 1:2, or 1:4 w/w ratios of PLGA/solvent, as exemplary starting points. For example, for DTG, 25 mg of DTG was added to individual vials containing 100 mg of solvent or PLGA/N-MP placebo ISFI solution. The mixture was mixed thoroughly using a vortex with short-warming for several cycles, and stirred at room temperature (RT), e.g. about 20-22° C., for about 24-48 h. Samples were subsequently centrifuged for 30 min at 13,000 rpm (Eppendorf Centrifuge 5417C, USA) to remove excess undissolved drug. Sample aliquots (1 mg, n=4) were collected from the saturated supernatant and diluted with acetonitrile (ACN). Drug concentration in the saturated aliquots was determined by HPLC analysis.
A reverse-phase HPLC analysis was carried out with a Finnigan Surveyor HPLC system (Thermo Finnigan, San Jose, California, USA) with a Photodiode Array (PDA) Plus Detector, auto-sampler, and LC Pump Plus. The stationary phase utilized for the analysis was a Inertsil ODS-3 column (4 μm, 4.6 Å˜150 mm, [GL Sciences, Torrance, CA]) maintained at 40° C. Chromatographic separation was achieved by gradient elution using a mobile phase consisting of 0.1% trifluoroacetic acid in water and ACN (H2O/ACN 95:5 v/v). The flow rate was 1.0 mL/min and the total run time was 25 min for each 25 μL injection.

[5] = CAB MPT ISFI in vitro release studies; format: physicochemical; conditions: for in vitro release as single-drug ISFI versus co-formulated: CAB with either hormone, MPA or ENG with CAB (ENG up to 60 days)
Protocol: Drug release kinetics from various implant formulations was evaluated by incubating solid implants (25 mg±5 mg) into 200 mL of release medium under sink conditions (0.01 M PBS pH 7.4 with 2% solutol HS) at 37° C. for up to 6 months. Sample aliquots (1 mL) were collected at various time points and replaced with fresh release medium. The release medium was completely removed and replaced with fresh medium every week to maintain sink conditions. Drug concentration in the release samples was quantified by HPLC using the method described above. Cumulative drug release was calculated from the HPLC analysis and normalized to the total mass of drug in the implant. All experiments were performed in quadruplicate.
In vitro release of single-drug ISFIs vs. MPT ISFIs were evaluated to assess drug-drug interactions. All ISFI liquid suspensions were stable and homogenous, elicited <15% burst release, sustained release for 90 days, and above target release rates.

[6] = published CAB population PK model, mean parameter; cited from earlier work
HIV = conditions: protein-adjusted, cited from earlier work; for 4×PA-IC90: benchmark for protection
[7] = Suspension stability studies; format: physicochemical; conditions: polymer:solvent 1:2
Protocol: Eight (8) formulations were prepared and evaluated for stability. The formulations were placed in a water bath at 37° C. with shaking overnight and then vortexed for about 2 min upon removal. Sample aliquots (about 1 mg, n=4) were collected from each formulation and analyzed by HPLC to determine drug homogeneity distribution within the formulation. All suspension formulations were reevaluated for homogeneity after at least 24 h storage at room temperature (RT) to determine stability of suspensions at RT.

[8] = DMSO, organic solvent or mixture, solvent DMSO
[9] = 167 mg/g in 6:1 w/w PLA (10 kDa):Pluronic L61, NMP
[10] = 200 mg/g in 9:1 w/w PLA (10 kDa):Pluronic L61, NMP

Nc1ccn([C@@H]2CS[C@H](CO)O2)c(=O)n1 [3TC, lamuvidine]
suspension formation when loaded above saturation concentration in PLGA/solvent placebo [1]: did not form successful suspensions

Nc1ccn([C@@H]2O[C@H](CO)[C@@H](O)C2(F)F)c(=O)n1 [Gem, gemcitabine]
in vitro release from ISFI [2]: exhibited sustained release in vitro

CC(=O)O[C@H]1C(=O)[C@@]2(C)[C@H]([C@H](OC(=O)c3ccccc3)[C@]3(O)C[C@H](OC(=O)[C@H](O)[C@@H](NC(=O)c4ccccc4)c4ccccc4)C(C)=C1C3(C)C)[C@]1(OC(C)=O)CO[C@@H]1C[C@@H]2O [PTX, paclitaxel]
in vitro release from ISFI [2]: exhibited sustained release in vitro | burst release in 24 h ([2]; ISFI): < 2% | sustained release duration ([2]; ISFI): > 60 days

CC(=O)O[C@]1(C(C)=O)CC[C@H]2[C@@H]3C[C@H](C)C4=CC(=O)CC[C@]4(C)[C@H]3CC[C@@]21C [MPA, medroxyprogesterone acetate]
best-fit model of in vivo release ([3]; MPT ISFIs, 90-day PK): zero-order release model | plasma concentrations over the study ([3]; in MPT ISFIs, 90-day study): maintained during the 90-day study | solubility ([4]; organic solvent or mixture, solvent NMP:DMSO (1:1 w/w)): 33.6 ± 0.9 mg/mL | in vitro release as single-drug ISFI versus co-formulated [5]: difference (p<0.05)

C[C@H]1CO[C@@H]2Cn3cc(C(=O)NCc4ccc(F)cc4F)c(=O)c(O)c3C(=O)N12 [CAB—Na salt, Cabotegravir sodium]
Saturation Solubility ([4]; solvent DMSO): 31.6 ± 0.96 mg/mL | Saturation Solubility ([4]; solvent NMP): 47.5 ± 1.72 mg/mL | Saturation Solubility ([4]; solvent NMP:DMSO (1:1 w/w)): 49.1 ± 1.2 mg/mL | Saturation Solubility ([4]; solvent PBS + 2% Solutol): 1.83 ± 0.7 mg/mL

C[C@H]1CO[C@@H]2Cn3cc(C(=O)NCc4ccc(F)cc4F)c(=O)c(O)c3C(=O)N12 [CAB, Cabotegravir]
plasma concentrations when co-formulated with either hormone (MPA or ENG) ([3]; mouse, in vivo): no difference (p>0.05) | solubility ([4]; (NMP:DMSO 1:1 w/w):Tween 20 (9:1 w/w), organic solvent or mixture, solvent (NMP:DMSO 1:1 w/w):Tween 20 (9:1 w/w)): 107 ± 3.05 mg/mL | solubility [4, 8]: 38 mg/mL | solubility ([4]; NMP:DMSO (2:8 w/w), organic solvent or mixture, solvent NMP:DMSO (2:8 w/w)): 52.2 ± 6.39 mg/mL | solubility ([4]; NMP:DMSO (9:1 w/w), organic solvent or mixture, solvent NMP:DMSO (9:1 w/w)): 144 ± 1.99 mg/mL | solubility ([4]; NMP:Gelucire 44/14 (9:1 w/w), organic solvent or mixture, solvent NMP:Gelucire 44/14 (9:1 w/w)): 134 ± 3.81 mg/mL | solubility ([4]; NMP:HP-b-CD (6:4 w/w), organic solvent or mixture, solvent NMP:HP-b-CD (6:4 w/w)): 89.6 ± 5.49 mg/mL | solubility ([4]; NMP:HP-b-CD (9:1 w/w), organic solvent or mixture, solvent NMP:HP-b-CD (9:1 w/w)): 158.2 ± 1.12 mg/mL | solubility ([4]; NMP:b-CD (6:4 w/w), organic solvent or mixture, solvent NMP:b-CD (6:4 w/w)): 81.8 ± 2.35 mg/mL | solubility ([4]; PBS, aqueous buffer, solvent PBS): 0.014 ± 0.001 mg/mL | Saturation Solubility ([4]; solvent DMSO): 38.0 mg/mL | Saturation Solubility ([4]; solvent NMP): 131.7 ± 3.66 mg/mL | Saturation Solubility ([4]; solvent NMP:DMSO (1:1 w/w)): 167.12 ± 12.04 mg/mL | Saturation Solubility ([4]; solvent PBS + 2% Solutol): 0.06 ± 0.002 mg/mL | CL [6]: 151 mL/h | Q [6]: 507 mL/h | V2 [6]: 5270 mL | V3 [6]: 2430 mL | in vitro release as single-drug ISFI versus co-formulated [5]: comparable (p>0.05) | suspension formation when loaded above saturation concentration in PLGA/solvent placebo [1]: formed stable syringeable formulations | depot formation when injected into aqueous release medium [1]: formation of stable depots | 4×PA-IC90 (HIV): 0.664 µg/mL | 1×PA-IC90 (HIV): 0.166 µg/mL

C[C@@H]1CCO[C@H]2Cn3cc(C(=O)NCc4ccc(F)cc4F)c(=O)c(O)c3C(=O)N12 [DTG, Dolutegravir]
plasma concentrations when co-formulated with either hormone (MPA or ENG) ([3]; mouse, in vivo): no difference (p>0.05) | solubility [4, 8]: 55 ± 4.5 mg/mL | solubility ([4]; NMP, organic solvent or mixture, solvent NMP): 269 ± 7.25 mg/mL | solubility ([4]; NMP:DMSO (1:1 w/w), organic solvent or mixture, solvent NMP:DMSO (1:1 w/w)): 229.3 ± 1.6 mg/mL | Saturation Solubility ([4]; solvent PBS + 2% Solutol): 0.56 ± 0.004 mg/mL | suspension formation when loaded above saturation concentration in PLGA/solvent placebo [1]: formed stable syringeable formulations | depot formation when injected into aqueous release medium [1]: formation of stable depots | 4×PA-IC90 (HIV): 0.256 µg/mL | 1×PA-IC90 (HIV): 0.064 µg/mL

C#C[C@]1(O)CC[C@H]2[C@@H]3CCC4=CC(=O)CC[C@@H]4[C@H]3C(=C)C[C@@]21CC [ENG, entonogestrel]
plasma concentrations over the study ([3]; mouse, in vivo): maintained during the 90-day study | in vitro release as single-drug ISFI versus co-formulated [5]: no difference (p>0.05) | in vitro release as single-drug ISFI versus co-formulated with CAB ([5]; beyond 60 days): significantly different (p<0.05)

C#C[C@]1(CO)O[C@@H](n2cnc3c(N)nc(F)nc32)C[C@@H]1O [EFdA, Islatravir]
suspension formation when loaded above saturation concentration in PLGA/solvent placebo [1]: did not form successful suspensions | depot formation when injected into aqueous release medium [1]: did not form a stable spherical depot | 24 h-Burst [7, 9]: 64% | Depot Forming [7, 9]: YES | 24 h-Burst [7, 10]: 58% | Depot Forming [7, 10]: YES
